Data published in ChEMBL document CHEMBL5131467, “Multivalent peptide dendrimers inhibit the fusion of viral-cellular membranes and the cellular NF-κB signaling pathway” (Eur J Med Chem, 2022).
Activity calls are given as the source filed them. The rule behind the calls is not given here. Where a SMILES comes first, the peptide text is derived from it. Bridges are numbered along the chain shown (N, C = ends). Roman numbers before positions name the chains, in order. Side-chain parts run from the residue outwards. The star is where a group is joined. Acetyl(2-naphthyl) = O=C(Cc1ccc2ccccc2c1)*

Legend:
Influenza A virus [1] = assay: Antiviral activity against Influenza A virus (A/Puerto Rico/8/1934(H1N1)) infected in MDCK cells assessed as reduction in viral nucleoprotein expression level at 2.5 ug/ml during infection measured after 24 hrs post infection by indirect immunofluorescence assay; assay type: functional, organism-based; settings: dose 2.5 µg/ml
RAW264.7 [2] = assay: Anti-inflammatory activity against Influenza A virus (A/Puerto Rico/8/1934(H1N1)) induced mouse RAW264.7 cells assessed as suppression of NF kappa B expression level 5 ug/ml by luciferase reporter assay; assay type: functional, cell-based; settings: dose 5.0 µg/ml
Influenza A virus [3] = assay: Antiviral activity against Influenza A virus A/FM/1/47 infected in MDCK cells incubated for 1 hr by MTT assay; assay type: functional, organism-based; settings: A/FM/1/47, MDCK
Influenza A virus [4] = assay: Antiviral activity against Influenza A virus (A/Puerto Rico/8/1934(H1N1)) infected in MDCK cells assessed as reduction in M1 mRNA level at 1 ug/ml measured after 24 hrs post infection by qRT-PCR analysis; assay type: functional, organism-based; settings: dose 1.0 µg/ml
Influenza A virus [5] = assay: Antiviral activity against Influenza A virus 699(H3) clinical isolate infected in MDCK cells incubated for 1 hr by MTT assay; assay type: functional, organism-based
Influenza B virus = assay: Antiviral activity against Influenza B virus 699[…] clinical isolate infected in MDCK cells incubated for 1 hr by MTT assay; assay type: functional, organism-based
Influenza A virus [6] = assay: Antiviral activity against Influenza A virus (A/Puerto Rico/8/1934(H1N1)) infected in MDCK cells assessed as reduction in virus induced cytopathic effect during infection incubated for 1 hr by MTT assay; assay type: functional, organism-based
Influenza A virus [7] = assay: Antiviral activity against Influenza A virus A/Aichi/2/68(H3N2) infected in MDCK cells incubated for 1 hr by MTT assay; assay type: functional, organism-based
RAW264.7 [8] = assay: Anti-inflammatory activity against mouse RAW264.7 cells assessed as reduction in LPS induced IL-6 level at 5 ug/ml by qRT-PCR analysis; assay type: functional, cell-based; settings: dose 5.0 µg/ml
RAW264.7 [9] = assay: Anti-inflammatory activity against mouse RAW264.7 cells assessed as reduction in LPS induced TNF alpha level at 5 ug/ml by qRT-PCR analysis; assay type: functional, cell-based; settings: dose 5.0 µg/ml
Mus musculus [10] = assay: Antiviral activity against Kunming mouse infected with Influenza A virus (A/Puerto Rico/8/1934(H1N1)) assessed as survival rate at 5 mg/kg, ip administered once a day for 5 days relative to control; assay type: functional; settings: 120 h, time 5 day
[11] = Selectivity index, ratio of CC50 for MDCK cells to IC50 antiviral activity against Influenza A virus (A/Puerto Rico/8/1934(H1N1)) infected in MDCK cells assessed as reduction in virus induced cytopathic effect pre-treated with virus; assay type: toxicity, cell-based; settings: dog, read-out: Selectivity Index
RAW264.7 [12] = assay: Anti-inflammatory activity against mouse RAW264.7 cells assessed as reduction in LPS induced IL-1 beta level at 5 ug/ml by qRT-PCR analysis; assay type: functional, cell-based; settings: dose 5.0 µg/ml
RAW264.7 [13] = assay: Anti-inflammatory activity against mouse RAW264.7 cells assessed as reduction in influenza A virus induced IL-6 level at 5 ug/ml by qRT- PCR; assay type: functional, cell-based; settings: dose 5.0 µg/ml
Hemagglutinin = Hemagglutinin (Influenza A virus, UniProt B4URE7); assay: Binding affinity to Influenza A Puerto Rico/8/1934/H1N1 hemagglutin assessed as dissociation constant by surface plasmon resonance assay
Hemagglutinin, sequence (B4URE7 whole entry): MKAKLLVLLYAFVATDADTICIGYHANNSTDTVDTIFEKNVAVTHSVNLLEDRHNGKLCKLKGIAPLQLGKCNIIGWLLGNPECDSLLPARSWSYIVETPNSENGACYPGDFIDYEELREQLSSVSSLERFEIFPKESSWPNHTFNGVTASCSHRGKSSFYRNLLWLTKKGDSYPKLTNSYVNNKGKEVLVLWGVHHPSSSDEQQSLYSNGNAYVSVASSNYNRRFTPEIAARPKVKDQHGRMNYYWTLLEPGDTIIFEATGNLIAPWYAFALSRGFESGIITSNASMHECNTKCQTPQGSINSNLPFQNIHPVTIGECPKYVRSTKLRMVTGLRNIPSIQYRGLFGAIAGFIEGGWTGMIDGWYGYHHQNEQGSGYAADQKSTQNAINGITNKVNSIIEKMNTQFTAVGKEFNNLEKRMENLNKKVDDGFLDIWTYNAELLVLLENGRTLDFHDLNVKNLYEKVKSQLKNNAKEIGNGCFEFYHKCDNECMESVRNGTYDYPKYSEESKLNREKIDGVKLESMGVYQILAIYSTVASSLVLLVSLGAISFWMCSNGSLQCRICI

Mus musculus [14] = assay: Antiviral activity against Kunming mouse infected with Influenza A virus (A/Puerto Rico/8/1934(H1N1)) assessed as increase in body weight at 5 mg/kg, ip measured after 15 days (reference value: 178.7%); assay type: functional; settings: time 15 day
[15] = Cytotoxicity against MDCK cells by CCK-8 assay; assay type: toxicity, cell-based, Canis lupus familiaris; settings: dog
Influenza A virus [16] = assay: Antiviral activity against Influenza A virus (A/Puerto Rico/8/1934(H1N1)) infected in MDCK cells assessed as reduction in viral nucleoprotein expression level at 2.5 ug/ml pre-treated with virus measured after 24 hrs post infection by indirect immunofluorescence assay; assay type: functional, organism-based; settings: dose 2.5 µg/ml
RAW264.7 [17] = assay: Anti-inflammatory activity against mouse RAW264.7 cells assessed as reduction in influenza A virus induced TNF alpha level at 5 ug/ml by qRT- PCR; assay type: functional, cell-based; settings: dose 5.0 µg/ml
RAW264.7 [18] = assay: Anti-inflammatory activity against mouse RAW264.7 cells assessed as reduction in influenza A virus induced IL-1 beta level at 5 ug/ml by qRT- PCR; assay type: functional, cell-based; settings: dose 5.0 µg/ml
[19] = Cytotoxicity against MDCK cells incubated for 1 hr by MTT assay; assay type: toxicity, cell-based, Canis lupus familiaris; settings: dog
RAW264.7 [20] = assay: Anti-inflammatory activity against LPS induced mouse RAW264.7 cells assessed as suppression of NF kappa B expression level at 5 ug/ml by luciferase reporter assay; assay type: functional, cell-based; settings: dose 5.0 µg/ml
Influenza A virus [21] = assay: Antiviral activity against Influenza A virus (A/Puerto Rico/8/1934(H1N1)) infected in MDCK cells assessed as reduction in HA mRNA level at 1 ug/ml measured after 24 hrs post infection by qRT-PCR analysis; assay type: functional, organism-based; settings: dose 1.0 µg/ml
Influenza A virus [22] = assay: Antiviral activity against Influenza A virus (A/Puerto Rico/8/1934(H1N1)) infected in MDCK cells assessed as reduction in virus induced cytopathic effect pretreated with compound incubated for 1 hrs by MTT assay; assay type: functional, organism-based
Influenza A virus [23] = assay: Antiviral activity against Influenza A virus (A/Puerto Rico/8/1934(H1N1)) infected in MDCK cells assessed as reduction in virus induced cytopathic effect after infection incubated for 1 hr by MTT assay; assay type: functional, organism-based
Influenza A virus [24] = assay: Antiviral activity against Influenza A virus (A/Puerto Rico/8/1934(H1N1)) infected in MDCK cells assessed as reduction in viral nucleoprotein expression level at 2.5 ug/ml pretreated with compound measured after 24 hrs post infection by indirect immunofluorescence assay; assay type: functional, organism-based; settings: dose 2.5 µg/ml
Influenza A virus [25] = assay: Antiviral activity against Influenza A virus (A/Puerto Rico/8/1934(H1N1)) infected in MDCK cells assessed as reduction in virus induced cytopathic effect pre-treated with virus followed by cell infection for 1 hr by MTT assay; assay type: functional, organism-based

In the case of `NCCCC[C@H](NC(=O)Cc1ccc2ccccc2c1)C(=O)N[C@@H](CCCCN)C(=O)N[C@@H](Cc1c[nH]c2ccccc12)C(=O)N[C@@H](CCCCN)C(=O)NCCCC[C@H](NC(=O)[C@H](CCCCN)NC(=O)[C@H](Cc1c[nH]c2ccccc12)NC(=O)[C@H](CCCCN)NC(=O)[C@H](CCCCN)NC(=O)Cc1ccc2ccccc2c1)C(=O)NCCCC[C@H](NC(=O)[C@H](CCCCNC(=O)[C@H](CCCCN)NC(=O)[C@H](Cc1c[nH]c2ccccc12)NC(=O)[C@H](CCCCN)NC(=O)[C@H](CCCCN)NC(=O)Cc1ccc2ccccc2c1)NC(=O)[C@H](CCCCN)NC(=O)[C@H](Cc1c[nH]c2ccccc12)NC(=O)[C@H](CCCCN)NC(=O)[C@H](CCCCN)NC(=O)Cc1ccc2ccccc2c1)C(=O)NCC(=O)O` (I: {Acetyl(2-naphthyl)}-KKWKK([Lys-Trp-Lys-Lys-Acetyl(2-naphthyl)])KG-OH / II: {Acetyl(2-naphthyl)}-KKWKK([Lys-Trp-Lys-Lys-Acetyl(2-naphthyl)]); amide I:6-II:C), the Activity (Influenza A virus [1]) is reported as “Active”, the Activity (RAW264.7 [2]) is reported as “Active” and the IC50 (Influenza A virus [3]) is reported as 230 nM. The Activity (Influenza A virus [4]) was “Active”, the IC50 (Influenza A virus [5]) was 210 nM and the IC50 (Influenza B virus) was 220 nM. For the same compound, the IC50 (Influenza A virus [6]) was 240 nM, the IC50 (Influenza A virus [7]) was 330 nM and the Activity (RAW264.7 [8]) was “Active”. The Activity (RAW264.7 [9]) was “Active”, the survival at 5 mg/kg (Mus musculus [10]) was 40% and the selectivity ratio [11] was 35.5. For the same compound, the Activity (RAW264.7 [12]) was “Active”, the Activity (RAW264.7 [13]) was “Active” and the Kd (Hemagglutinin) was 7.42 pM. The Activity (Mus musculus [14]) was 135.8%, the CC50 [15] was 4.41 µM and the Activity (Influenza A virus [16]) was “Active”. The Activity (RAW264.7 [17]) was “Active”, the Activity (RAW264.7 [18]) was “Active” and the CC50 at 1 h [19] was 6.67 µM. For the same compound, the Activity (RAW264.7 [20]) was “Active”, the Activity (Influenza A virus [21]) was “Active” and the IC50 (Influenza A virus [22]) was 340 nM. For the same compound, the IC50 (Influenza A virus [23]) was 7.69 µM, the Activity (Influenza A virus [24]) was “Active” and the IC50 (Influenza A virus [25]) was 190 nM.
